Values of other authors as cited in patent US20210137903A1, “ANTI-ANDROGENS FOR THE TREATMENT OF PROSTRATE CANCER” (priority 2019, published 2021).

Experiments:
AR = AR (Homo sapiens, UniProt P10275); conditions: cited from earlier work
T877A AR mutant = target: T1, T877A AR mutant (Homo sapiens, UniProt P10275, T878A); conditions: cited from earlier work
T1 sequence (P10275 1-920 T878A): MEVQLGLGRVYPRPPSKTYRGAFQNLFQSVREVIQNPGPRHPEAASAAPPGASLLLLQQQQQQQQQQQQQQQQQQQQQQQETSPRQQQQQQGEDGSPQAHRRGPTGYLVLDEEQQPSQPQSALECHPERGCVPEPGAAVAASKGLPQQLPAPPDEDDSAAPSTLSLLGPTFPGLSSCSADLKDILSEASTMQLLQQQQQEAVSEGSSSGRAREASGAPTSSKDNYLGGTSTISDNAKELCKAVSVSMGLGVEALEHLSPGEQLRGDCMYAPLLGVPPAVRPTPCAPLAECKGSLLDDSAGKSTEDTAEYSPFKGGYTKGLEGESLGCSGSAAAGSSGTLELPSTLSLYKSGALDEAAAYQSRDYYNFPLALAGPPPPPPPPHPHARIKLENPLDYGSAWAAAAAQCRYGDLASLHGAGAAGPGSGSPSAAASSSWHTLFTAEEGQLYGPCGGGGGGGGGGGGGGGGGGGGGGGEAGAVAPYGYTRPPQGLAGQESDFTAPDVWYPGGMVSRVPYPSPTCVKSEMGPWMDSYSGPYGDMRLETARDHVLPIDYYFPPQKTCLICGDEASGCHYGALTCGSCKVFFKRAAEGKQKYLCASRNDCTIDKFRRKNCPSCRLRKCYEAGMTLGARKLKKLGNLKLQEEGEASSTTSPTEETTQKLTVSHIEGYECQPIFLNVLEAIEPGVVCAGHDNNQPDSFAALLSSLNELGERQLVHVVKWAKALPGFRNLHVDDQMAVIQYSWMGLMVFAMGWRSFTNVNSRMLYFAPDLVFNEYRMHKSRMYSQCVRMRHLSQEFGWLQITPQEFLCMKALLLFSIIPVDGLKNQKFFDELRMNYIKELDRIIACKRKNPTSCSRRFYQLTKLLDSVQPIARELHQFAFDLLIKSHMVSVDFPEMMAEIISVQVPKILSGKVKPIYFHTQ

Sequence of AR (P10275 whole entry): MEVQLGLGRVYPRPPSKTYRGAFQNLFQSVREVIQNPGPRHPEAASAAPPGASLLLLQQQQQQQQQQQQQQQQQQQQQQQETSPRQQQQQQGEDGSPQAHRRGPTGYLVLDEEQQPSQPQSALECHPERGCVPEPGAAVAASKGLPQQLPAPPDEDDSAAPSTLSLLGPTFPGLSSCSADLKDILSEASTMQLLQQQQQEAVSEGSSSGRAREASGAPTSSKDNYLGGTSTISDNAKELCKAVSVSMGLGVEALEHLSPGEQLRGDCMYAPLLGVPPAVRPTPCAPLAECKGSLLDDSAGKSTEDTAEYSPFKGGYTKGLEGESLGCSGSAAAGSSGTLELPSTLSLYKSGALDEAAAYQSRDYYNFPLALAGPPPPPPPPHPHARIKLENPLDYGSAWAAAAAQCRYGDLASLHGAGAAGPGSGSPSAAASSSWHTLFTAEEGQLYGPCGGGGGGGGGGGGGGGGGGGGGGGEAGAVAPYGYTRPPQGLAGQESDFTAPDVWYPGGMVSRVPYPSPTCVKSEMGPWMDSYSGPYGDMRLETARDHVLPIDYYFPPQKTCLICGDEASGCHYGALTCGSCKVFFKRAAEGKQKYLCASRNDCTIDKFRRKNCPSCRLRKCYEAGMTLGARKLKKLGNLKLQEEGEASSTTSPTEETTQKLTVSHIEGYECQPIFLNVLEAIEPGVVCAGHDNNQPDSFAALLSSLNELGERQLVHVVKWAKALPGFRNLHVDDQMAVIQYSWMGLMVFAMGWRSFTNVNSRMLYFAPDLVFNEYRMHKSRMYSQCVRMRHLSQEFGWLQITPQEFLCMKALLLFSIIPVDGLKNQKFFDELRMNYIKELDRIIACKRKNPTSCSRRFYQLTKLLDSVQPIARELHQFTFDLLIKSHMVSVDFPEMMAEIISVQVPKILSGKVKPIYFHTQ

CC(O)c1cc(C(=O)N[C@@H](C)Cn2ccc(-c3ccc(C#N)c(Cl)c3)n2)[nH]n1 (some centres unmarked) [Darolutamide]
affinity of binding to AR (AR): high affinity

CC(C)(O)C(=O)Nc1ccc([N+](=O)[O-])c(C(F)(F)F)c1 [hydroxyflutamide]
AR agonist activity (T877A AR mutant): act as AR agonists
